Measured values published in PubChem BioAssay (NCI).
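1) Cells in 96-well plates. 2) Compound, 48 h, 5 concentrations. 3) Linear interpolation between surrounding doses. 4) Unreached endpoint = highest concentration. GI50 marks 50% less growth. Definition used: TGI = concentration required for complete inhibition of growth.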

Assays:
Assay in all cases: growth of human tumour cells (NCI), 48 h
NCI-H226 lung = test system: NCI-H226 lung
NCI-H23 lung = test system: NCI-H23 lung
NCI-H460 lung = test system: NCI-H460 lung
NCI-H522 lung = test system: NCI-H522 lung
NCI/ADR-RES ovarian = test system: NCI/ADR-RES ovarian
OVCAR-3 ovarian = test system: OVCAR-3 ovarian
OVCAR-4 ovarian = test system: OVCAR-4 ovarian
OVCAR-5 ovarian = test system: OVCAR-5 ovarian
OVCAR-8 ovarian = test system: OVCAR-8 ovarian
PC-3 prostate = test system: PC-3 prostate
RPMI-8226 leukemia = test system: RPMI-8226 leukemia
RXF 393 renal = test system: RXF 393 renal
SF-268 CNS = test system: SF-268 CNS
SF-295 CNS = test system: SF-295 CNS
SF-539 CNS = test system: SF-539 CNS
SK-MEL-2 melanoma = test system: SK-MEL-2 melanoma
SK-MEL-28 melanoma = test system: SK-MEL-28 melanoma
SK-MEL-5 melanoma = test system: SK-MEL-5 melanoma
SK-OV-3 ovarian = test system: SK-OV-3 ovarian
SN12C renal = test system: SN12C renal
SNB-19 CNS = test system: SNB-19 CNS
SNB-75 CNS = test system: SNB-75 CNS
SW-620 colon = test system: SW-620 colon
T-47D breast = test system: T-47D breast
TK-10 renal = test system: TK-10 renal
U251 CNS = test system: U251 CNS
UACC-257 melanoma = test system: UACC-257 melanoma
UACC-62 melanoma = test system: UACC-62 melanoma
UO-31 renal = test system: UO-31 renal

Compound `N#CC(C#N)=C/C=C(\Sc1ccc(F)c(Cl)c1)c1ccc(Cl)cc1` has a GI50 (NCI-H226 lung) of 2.05 µM, a TGI (NCI-H226 lung) of 6.25 µM and a GI50 (NCI-H23 lung) of 1.14 µM. The TGI (NCI-H23 lung) was 5.64 µM, the GI50 (NCI-H460 lung) was 5.24 µM and the TGI (NCI-H460 lung) was 22.7 µM. The GI50 (NCI-H522 lung) was 1.8 µM, the TGI (NCI-H522 lung) was 7.71 µM and the GI50 (NCI/ADR-RES ovarian) was 1.11 µM. For the same compound, the TGI (NCI/ADR-RES ovarian) was 4.82 µM, the GI50 (OVCAR-3 ovarian) was 3.99 µM and the TGI (OVCAR-3 ovarian) was 16.3 µM. For the same compound, the GI50 (OVCAR-4 ovarian) was 0.918 µM, the TGI (OVCAR-4 ovarian) was 7.43 µM and the GI50 (OVCAR-5 ovarian) was 2.93 µM. It also gave a TGI (OVCAR-5 ovarian) of 24.6 µM, a GI50 (OVCAR-8 ovarian) of 0.862 µM and a TGI (OVCAR-8 ovarian) of 2.42 µM. For the same compound, the GI50 (PC-3 prostate) was 0.787 µM, the TGI (PC-3 prostate) was 7.1 µM and the GI50 (RPMI-8226 leukemia) was 0.271 µM. It also gave a TGI (RPMI-8226 leukemia) of 0.967 µM, a GI50 (RXF 393 renal) of 0.663 µM and a TGI (RXF 393 renal) of 2.12 µM. The GI50 (SF-268 CNS) was 2.52 µM, the TGI (SF-268 CNS) was 17.8 µM and the GI50 (SF-295 CNS) was 10.7 µM. It also gave a TGI (SF-295 CNS) of over 53.2 µM, a GI50 (SF-539 CNS) of 2.19 µM and a TGI (SF-539 CNS) of 6.58 µM. It also gave a GI50 (SK-MEL-2 melanoma) of 7.01 µM, a TGI (SK-MEL-2 melanoma) of 23.9 µM and a TGI (SK-MEL-28 melanoma) of 3.53 µM. For the same compound, the GI50 (SK-MEL-5 melanoma) was 7.22 µM, the TGI (SK-MEL-5 melanoma) was 19.4 µM and the GI50 (SK-OV-3 ovarian) was 15.8 µM. The TGI (SK-OV-3 ovarian) was over 41.1 µM, the GI50 (SN12C renal) was 0.669 µM and the TGI (SN12C renal) was 1.93 µM. It also gave a GI50 (SNB-19 CNS) of 5.48 µM, a TGI (SNB-19 CNS) of 28.2 µM and a GI50 (SNB-75 CNS) of 5.62 µM. It also gave a TGI (SNB-75 CNS) of 16 µM, a GI50 (SW-620 colon) of 0.494 µM and a TGI (SW-620 colon) of 5.74 µM. The GI50 (T-47D breast) was 11.6 µM, the TGI (T-47D breast) was 46.3 µM and the GI50 (TK-10 renal) was 1.62 µM. The TGI (TK-10 renal) was 6.57 µM, the GI50 (U251 CNS) was 0.72 µM and the TGI (U251 CNS) was 2.61 µM. The GI50 (UACC-257 melanoma) was 6.68 µM, the TGI (UACC-257 melanoma) was 19.5 µM and the GI50 (UACC-62 melanoma) was 2.43 µM. It also gave a TGI (UACC-62 melanoma) of 11.5 µM, a GI50 (UO-31 renal) of 0.889 µM and a TGI (UO-31 renal) of 2.86 µM.
